Laboratory results as given in patent US5744492A, “Method for inhibiting angiogenesis” (United States of America, priority 1994, dated 1998).

Tests used:
[1] = test system: HUVECs; test: HUVEC motility (modified Boyden chamber chemotaxis); assay type: cell-based, human; conditions: 18 hr preincubation
Method: (§1) Human umbilical vein endothelial cells (H 930) were generously supplied by Dr. Tom Maciag, American Red Cross (Gaithersburg, Md., USA) and were used between passages 9 and 14 to avoid senescence. HUVECs were grown on fibronectin-coated tissue culture plastic (200 μg/150 mm dish) in complete medium (Medium 199 (M-199) containing 5 U/mL preservative-free heparin, 25.5 μg/mL ECGS, 10% fetal bovine serum and 100 U/mL penicillin, 100 μg/mL streptomycin, and 0.25 μg/mL fungizone).
A modified Boyden chamber system was used to determine whether compound 1 could modulate the chemotactic stimulation of endothelial cells by fibronectin, laminin, type IV collagen or thrombospondin. The particular system used has been described for tumor cell motility. See, Minniti, et al., J. Biol. Chem. 267:9000-9004 (1992). Modifications were made as to cell number, membrane pore size, and time of incubation were tested to determine optimal conditions for the HUVECs.
HUVECs were pretreated as described above for adhesion and resuspended at 2×10^6 cells/mL in M-199 containing 0.1% bovine serum albumin. Cells were seeded in the upper compartment of the chamber separated from the lower compartment by a gelatin-coated Nucleopore filter with 8μ pores. Laminin (100 μg/mL), fibronectin (30 μg/mL), type IV collagen (100 μg/mL) or thrombospondin (20 μg/mL) were diluted from stock solutions into control medium (M-199 plus 0.1% BSA) and were used as chemoattractants in the lower chamber. HUVECs were incubated with DMSO control (0.1%) or compound 1 (0.1-10 μM) for 18 hr prior to the motility assay. Compound 1 and DMSO were maintained with the cells throughout the experiment. Assays were incubated at 37° C. for 2 hours after which the filters were removed, fixed, and stained. Cell migration was quantited by counting five high power fields in triplicate pellets of migrated cells. Results are expressed as percentage of control cell migration (x±SEM, n=3).

[2] = test system: MMP-2; test: Gelatin zymography of HUVEC conditioned medium, bFGF-stimulated proMMP-2 and its activated form; assay type: cell-based; conditions: Homo sapiens, bFGF 10 ng/mL for final 24 hr, read-out: inhibition of bFGF-stimulated synthesis of proMMP-2 and its activated form
Method: as §1
Gelatin zymography was carried out as described in Brown, et al., Cancer Research 50:6184-6191 (1990). HUVECs were seeded at 1.2×10^5 /cm^2 in 25 cm^2 fibronectin-coated tissue culture flasks in complete medium containing increasing concentrations of compound 1 (0.1-10 μM) or DMSO vehicle control. After 18 hr of culture, the complete medium was removed and the cells were washed once with serum-free M-199 supplemented with 5 μg/mL bovine insulin, 5 μg/mL human transferrin and 5 ng/mL sodium selenite (ITS). A further 24 hr incubation was carried out with 3 mL of fresh ITS-containing M-199 and varying concentrations of compound 1 (0.1-10 μM) or DMSO vehicle control (0.1%). This conditioned medium was harvested and spun free of cells.
See, Rifkin, et al., J. Cell Biol. 109:1-6 (1989). […]

[3] = test system: MMP-2; test: Northern blot analysis of MMP-2 expression in HUVECs; assay type: cell-based, human; conditions: 24 hr; for inhibition at 10 µM: Homo sapiens, HUVEC
Method: as §1
HUVECs were grown to confluence as described. Fresh complete medium with test compounds was added to confluent cells for an additional 24 hr incubation. bFGF (10 ng/mL), and/or compound 1 (10 μM) or DMSO control (0.1%) were added as indicated below. Total RNA was isolated by the guanidine isothiocyanate/CsCl method. Aliquots of RNA (7.5 μg) were separated on 1% agarose/formaldehyde gels, passively transferred to GeneScreen Plus membrane in 20X SSC, then cross-linked with ultraviolet light. Blots were prewashed for 1 hr at 42° C. in 1M NaCl, 10 mM Tris, 1 mM EDTA, 0.1% SDS and then hybridized overnight at 42° C. with a formamide-containing buffer (hybridization buffer final: 50% formamide, 4X SSC, 10 mM Tris pH 7.5, IX Denhardt solution, 0.2% SDS, 125 μg/ml salmon sperm DNA) with a random-primed 300 bp insert for MMP-2 (gift of Dr. William Stetler-Stevenson, Laboratory of Pathology, NCI). Blots were washed under stringent conditions then exposed to film. After removal of MMP-2 probe, blots were rehybridized with β-actin probe for quantitation of the RNA load. Results were quantitated by densitometric evaluation of the autoradiographs.
Lane 1 corresponds to the mRNA from HUVECs treated with DMSO (control). Lanes 2-4 show the mRNA isolated from HUVECs treated with compound 1 (10 μM) alone, compound 1 (10 μM) and bFGF (10 ng/mL), bFGF (10 ng/mL) alone, respectively.

[4] = bFGF 10 ng/mL + Compound 1 10 μM

## NC(=O)c1nnn(Cc2cc(Cl)c(C(=O)c3ccc(Cl)cc3)c(Cl)c2)c1N [Compound 1, 5-amino-1-(4-(4-chlorobenzoyl)-3,5-dichlorobenzyl)1,2,3-triazole-4-carboxamide]
[1]; 1 μM, P2, 0.018
  inhibition of HUVEC motility towards type IV collagen (in words): statistically significant dose-dependent inhibition
[1]; 1 μM, P2<0.009
  inhibition of HUVEC motility towards laminin (in words): statistically significant dose-dependent inhibition
[1]; 10 μM, p2<0.001
  inhibition of HUVEC motility towards all attractants (fibronectin, laminin, type IV collagen and thrombospondin) (in words): statistically significant dose-dependent inhibition
[2]
  inhibition at 10 µM: 90%
[3]; Control + Compound 1, 10 μM
  Corrected values (MMP-2 mRNA corrected for loading): 0.30
  MMP-2 (densitometer): 38 Densitometer units
[3]; no bFGF, vs control, read-out: % Inhibition of native MMP-2 expression
  inhibition at 10 µM: 86%
[3]; bFGF 10 ng/mL, vs bFGF, read-out: % Inhibition of MMP-2 expression in presence of bFGF
  inhibition at 10 µM: 62%
[3]; [4]
  Corrected values (MMP-2 mRNA corrected for loading): 0.14
  MMP-2 (densitometer): 31 Densitometer units
